According to patent US20250009697A1, “COMPOSITION FOR INCREASING AMOUNT OF FOOD INGESTED AND/OR IMPROVING ANOREXIA, AND COMPOSITION FOR ACTIVATING TRANSIENT RECEPTOR POTENTIAL ANKYRIN 1” (HOUSE FOODS GROUP INC., priority 2021, published 2025):

Tests used:
Type in all cases: cell-based
Human TRPA1 (hTRPA1) [1] = target: T1, Human TRPA1 (hTRPA1) (Homo sapiens, UniProt O75762); experiment: TRPA1 Activation Test 1: intracellular Ca2+ imaging assay 1-1 to 1-3, hTRPA1 stably expressing cell line; conditions: test sample 30 μM; for TRPA1 activation rate, With antagonist: A-967079 1 μM
T1 construct: expressed in transfected cells
T1 sequence (O75762 whole entry): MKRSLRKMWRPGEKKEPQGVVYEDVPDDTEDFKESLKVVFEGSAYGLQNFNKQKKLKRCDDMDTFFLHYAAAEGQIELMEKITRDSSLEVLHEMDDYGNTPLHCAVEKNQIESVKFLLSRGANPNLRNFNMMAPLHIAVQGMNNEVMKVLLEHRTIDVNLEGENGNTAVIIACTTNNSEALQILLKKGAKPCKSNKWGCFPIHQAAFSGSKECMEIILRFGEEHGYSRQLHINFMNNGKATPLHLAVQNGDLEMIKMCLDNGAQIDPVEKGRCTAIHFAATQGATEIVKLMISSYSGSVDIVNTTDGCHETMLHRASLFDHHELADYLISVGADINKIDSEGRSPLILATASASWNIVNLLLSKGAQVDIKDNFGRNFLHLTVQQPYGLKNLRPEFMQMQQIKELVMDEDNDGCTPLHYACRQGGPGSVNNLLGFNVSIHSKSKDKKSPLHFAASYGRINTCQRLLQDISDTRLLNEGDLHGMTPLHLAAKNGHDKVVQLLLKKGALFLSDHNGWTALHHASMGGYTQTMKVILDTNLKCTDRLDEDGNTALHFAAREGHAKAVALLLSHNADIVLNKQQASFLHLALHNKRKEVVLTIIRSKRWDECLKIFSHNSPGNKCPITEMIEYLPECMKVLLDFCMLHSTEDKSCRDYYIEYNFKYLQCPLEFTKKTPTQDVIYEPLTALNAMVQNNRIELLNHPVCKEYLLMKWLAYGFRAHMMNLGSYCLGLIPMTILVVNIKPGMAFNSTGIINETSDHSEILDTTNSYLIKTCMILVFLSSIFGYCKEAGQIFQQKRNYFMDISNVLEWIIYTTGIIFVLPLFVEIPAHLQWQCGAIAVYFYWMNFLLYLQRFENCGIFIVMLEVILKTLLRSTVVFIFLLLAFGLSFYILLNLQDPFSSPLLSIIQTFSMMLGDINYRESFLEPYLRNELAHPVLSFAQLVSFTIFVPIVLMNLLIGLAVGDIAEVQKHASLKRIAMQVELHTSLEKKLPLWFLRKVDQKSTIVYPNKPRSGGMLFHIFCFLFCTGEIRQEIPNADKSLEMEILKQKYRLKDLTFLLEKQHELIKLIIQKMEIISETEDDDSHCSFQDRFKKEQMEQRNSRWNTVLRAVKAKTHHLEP
Method: (§1) DNAs encoding genes described in the following Table 2 were inserted into pcDNA 5/TO vector (Invitrogen) to prepare various expression vectors.
(§2) These expression vectors were transfected into T-REx™_293 cells (Invitrogen) by a conventional method using Lipofectamine LTX (Invitrogen). Then, various transfectants were cultured and cloned by a conventional method using Dulbecco's Modified Eagle Medium (DMEM, Nacalai Tesque Inc.), containing 10% fetal bovine serum (FBS, Cytiva), […] of hygromycin B, and 5 μg/mL of blasticidin S, as a drug selection medium to obtain a hTRPA1 stably expressing cell line, a hTRPV1 stably expressing cell line, and a hTRPM8 stably expressing cell line.
A hTRPA1 stably expressing cell line in which expression of hTRPA1 had been induced in advance by a conventional method was prepared in a 96 well clear bottom plate (black), and a hTRPA1 activating action of the purified oxylipin or the R2 fraction (both were assumed to contain a compound having a molecular weight of 294) obtained in the above item 1 was tested. Specifically, after each well was washed with PBS, 50 μL of an assay buffer (Hanks' balanced salt solution containing no calcium ions or magnesium ions that contained 1 mM of CaCl2 dihydrate, 20 mM of HEPES, and 0.1% BSA) containing calcium fluorescent indicator Calbryte™ 520 AM (produced by AAT Bioquest) in a final concentration of 4 μM was added, followed by incubating at 33° C. for 45 minutes. After washing with the assay buffer, 100 μL of the assay buffer was added to each well. This plate was set to FlexStation 3 (Molecular Devices, LLC), and a fluorescence intensity (excitation wavelength 490 nm, fluorescence wavelength 525 nm) at 31° C. was measured every two seconds, and 30 seconds after the start of the measurement, 100 μL of an assay buffer containing a test sample which was prepared to have a certain final concentration or DMSO was added. Then, a well in which an assay buffer containing ionomycin (having a final concentration of 10 μM after the addition) instead of the test samples was added was also prepared as a reference for fluorescence intensity.
(§3) The measurement was continued from the start of the measurement up to 120 seconds, and the TRPA1 activation ability of the test samples was calculated in accordance with the following formula.
Activation rate (%)=(Fmax[s]−F0)/(Fmax[i]−F0)×100 • Fmax[s]: The maximum value of the fluorescence intensity when the test sample or the positive control was added • F0: The average value of the fluorescence intensity for 20 seconds after the start of the measurement (base line) • Fmax[i]: The maximum value of the fluorescence intensity when ionomycin was added
The TRPA1 activation ability was measured in the same manner as in the above (2) except that the R2 fraction or allyl isothiocyanate (AITC) was used as a test sample and the test was conducted with A-967079 (1 μM), which is a TRPA1-specific antagonist, or without A-967079. In addition, regarding the R2 fraction, the hTRPV1 stably expressing cell line or the hTRPM8 stably expressing cell line was used instead of the hTRPA1 stably expressing cell line to conduct the same test. Note that as positive controls, capsaicin was used for the hTRPV1 stably expressing cell line and icilin was used for the hTRPM8 stably expressing cell line.
The TRPA1 activation ability was measured in the same manner as in the above (2) except that each isolated compound or allyl isothiocyanate (AITC) was used as a test sample and the test was conducted with A-967079 (1 μM), which was a TRPA1-specific antagonist, or without A-967079.

Human TRPA1 (hTRPA1) [2] = target: T1, Human TRPA1 (hTRPA1); experiment: TRPA1 Activation Test 2: intracellular Ca2+ imaging assay 2-1 to 2-3, hTRPA1 stably expressing cell line; conditions: test sample 30 μM
Method: as §1, §2
(§4) A hTRPA1 stably expressing cell line in which expression of hTRPA1 had been induced in advance by a conventional method was prepared in a 96 well clear bottom plate, and the hTRPA1 activating action of rhein (produced by Tokyo Chemical Industry Co., Ltd.) was tested. Specifically, after each well was washed with PBS, 50 μL of an assay buffer (Hanks' balanced salt solution containing no calcium ion or magnesium ion that contained 1 mM of CaCl2 dihydrate, 20 mM of HEPES, and 0.1% BSA) containing calcium fluorescent indicator Calbryte™ 520 AM (produced by AAT Bioquest) in a final concentration of 4 μM was added, followed by incubating at 33° C. for 45 minutes. After washing with the assay buffer, 100 μL of the assay buffer was added to each well. This plate was set to FlexStation 3 (Molecular Devices, LLC), and a fluorescence intensity (excitation wavelength 490 nm, fluorescence wavelength 525 nm) at 31° C. was measured every two seconds, and 30 seconds after the start of the measurement, 100 μL of an assay buffer containing a test sample (allyl isothiocyanate (AITC) of positive control or rhein) which was prepared to have a certain final concentration or DMSO was added. Then, a well in which an assay buffer containing ionomycin (having a final concentration of 10 μM after the addition) instead of the test samples was added was also prepared as a reference for fluorescence intensity.
as §3
(§5) Activation rate (%)=(Fmax[s]−F0)/(Fmax[i]−F0)×100 • Fmax[s]: The maximum value of the fluorescence intensity when the test sample or positive control was added • F0: The average value of the fluorescence intensity for 20 seconds after the start of the measurement (base line) • Fmax[i]: The maximum value of the fluorescence intensity when ionomycin was added
The TRPA1 activation ability of each test sample was measured in the same manner as in the above (2) except the test was conducted with A-967079 (1 μM), which is a TRPA1-specific antagonist, or without A-967079. In addition, intracellular Ca^2+ imaging assay was conducted in the same manner as in the above (2) except that a hTRPV1 stably expressing cell line, a hTRPM8 stably expressing cell line, or a Mock cell was used instead of the hTRPA1 stably expressing cell line. Note that capsaicin was used as positive control for the hTRPV1 stably expressing cell line, and icilin was used as positive control for the hTRPM8 stably expressing cell line.
A TRPA1 activation ability was measured in the same manner as in the above (2) by using, as a test sample, rhein or compounds described in the following Table 10, which had anthraquinone structures similar to rhein, at a concentration of 200 μM of the test sample.

Mock cell = experiment: TRPA1 Activation Test 2: intracellular Ca2+ imaging assay 2-2, Mock cell; conditions: test sample 30 μM; Table 9
Method: as §4, §3
Activation rate (%)=(Fmax[s]−F0)/(Fmax[i]−F0)×100 • Fmax[s]: The maximum value of the fluorescence intensity when the test sample or positive control was added • F0: The average value of the fluorescence intensity for 20 seconds after the start of the measurement (base line) • Fmax[i]: The maximum value of the fluorescence intensity when ionomycin was added […]

Human TRPV1 (hTRPV1) [3] = target: T2, Human TRPV1 (hTRPV1) (Homo sapiens, UniProt Q8NER1); experiment: TRPA1 Activation Test 1: intracellular Ca2+ imaging assay 1-2, hTRPV1 stably expressing cell line; conditions: test sample 1 μM; Table 5
T2 construct: expressed in transfected cells
T2 sequence (Q8NER1 whole entry): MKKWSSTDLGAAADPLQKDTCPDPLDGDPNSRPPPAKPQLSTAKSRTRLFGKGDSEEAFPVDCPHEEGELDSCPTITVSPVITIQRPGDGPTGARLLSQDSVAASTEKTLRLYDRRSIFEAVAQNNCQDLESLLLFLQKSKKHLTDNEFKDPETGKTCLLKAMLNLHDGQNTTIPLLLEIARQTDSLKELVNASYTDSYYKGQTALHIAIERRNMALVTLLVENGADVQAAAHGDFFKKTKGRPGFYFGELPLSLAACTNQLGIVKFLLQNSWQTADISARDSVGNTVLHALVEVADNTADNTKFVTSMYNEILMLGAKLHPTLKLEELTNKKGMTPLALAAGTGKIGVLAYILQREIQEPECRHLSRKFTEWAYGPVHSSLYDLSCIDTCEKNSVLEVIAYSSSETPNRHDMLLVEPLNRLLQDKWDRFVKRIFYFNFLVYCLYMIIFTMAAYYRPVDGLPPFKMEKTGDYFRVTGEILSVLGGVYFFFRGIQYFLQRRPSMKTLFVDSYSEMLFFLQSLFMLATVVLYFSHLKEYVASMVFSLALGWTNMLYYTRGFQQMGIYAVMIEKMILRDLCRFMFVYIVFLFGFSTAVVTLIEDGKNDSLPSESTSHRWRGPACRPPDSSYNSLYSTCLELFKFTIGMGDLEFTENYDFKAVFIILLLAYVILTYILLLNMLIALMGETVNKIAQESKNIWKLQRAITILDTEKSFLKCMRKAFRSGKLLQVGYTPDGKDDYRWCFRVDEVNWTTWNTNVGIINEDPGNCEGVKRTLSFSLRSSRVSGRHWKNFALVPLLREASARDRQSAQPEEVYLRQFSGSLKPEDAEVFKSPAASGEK
Method: as §1, §2
After washing with the assay buffer, 100 μL of the assay buffer was added to each well. […] Then, a well in which an assay buffer containing ionomycin (having a final concentration of 10 μM after the addition) instead of the test samples was added was also prepared as a reference for fluorescence intensity.
as §3

Human TRPV1 (hTRPV1) [4] = target: T2, Human TRPV1 (hTRPV1); experiment: TRPA1 Activation Test 2: intracellular Ca2+ imaging assay 2-2, hTRPV1 stably expressing cell line; conditions: test sample 1 μM; Table 9
Method: as §1, §2
as §4, with “This plate was set to FlexStation 3 (Molecular Devices, LLC), and a fluorescence intensity (excitation wavelength 490 nm, fluorescence wavelength 525 nm) at 31° C. was measured every two seconds, and 30 seconds after the start of the measurement, 100 μL of an assay buffer containing a test sample (allyl isothiocyanate (AITC) of positive control or rhein) which was prepared to have a certain final concentration or DMSO was added.” left out
as §3, §5
(§6) The TRPA1 activation ability of each test sample was measured in the same manner as in the above (2) except the test was conducted with A-967079 (1 μM), which is a TRPA1-specific antagonist, or without A-967079. In addition, intracellular Ca^2+ imaging assay was conducted in the same manner as in the above (2) except that a hTRPV1 stably expressing cell line, a hTRPM8 stably expressing cell line, or a Mock cell was used instead of the hTRPA1 stably expressing cell line. […]

Human TRPM8 (hTRPM8) [5] = target: T3, Human TRPM8 (hTRPM8) (Homo sapiens, UniProt Q7Z2W7); experiment: TRPA1 Activation Test 1: intracellular Ca2+ imaging assay 1-2, hTRPM8 stably expressing cell line; conditions: test sample 5 μM; Table 5
T3 construct: expressed in transfected cells
T3 sequence (Q7Z2W7 whole entry): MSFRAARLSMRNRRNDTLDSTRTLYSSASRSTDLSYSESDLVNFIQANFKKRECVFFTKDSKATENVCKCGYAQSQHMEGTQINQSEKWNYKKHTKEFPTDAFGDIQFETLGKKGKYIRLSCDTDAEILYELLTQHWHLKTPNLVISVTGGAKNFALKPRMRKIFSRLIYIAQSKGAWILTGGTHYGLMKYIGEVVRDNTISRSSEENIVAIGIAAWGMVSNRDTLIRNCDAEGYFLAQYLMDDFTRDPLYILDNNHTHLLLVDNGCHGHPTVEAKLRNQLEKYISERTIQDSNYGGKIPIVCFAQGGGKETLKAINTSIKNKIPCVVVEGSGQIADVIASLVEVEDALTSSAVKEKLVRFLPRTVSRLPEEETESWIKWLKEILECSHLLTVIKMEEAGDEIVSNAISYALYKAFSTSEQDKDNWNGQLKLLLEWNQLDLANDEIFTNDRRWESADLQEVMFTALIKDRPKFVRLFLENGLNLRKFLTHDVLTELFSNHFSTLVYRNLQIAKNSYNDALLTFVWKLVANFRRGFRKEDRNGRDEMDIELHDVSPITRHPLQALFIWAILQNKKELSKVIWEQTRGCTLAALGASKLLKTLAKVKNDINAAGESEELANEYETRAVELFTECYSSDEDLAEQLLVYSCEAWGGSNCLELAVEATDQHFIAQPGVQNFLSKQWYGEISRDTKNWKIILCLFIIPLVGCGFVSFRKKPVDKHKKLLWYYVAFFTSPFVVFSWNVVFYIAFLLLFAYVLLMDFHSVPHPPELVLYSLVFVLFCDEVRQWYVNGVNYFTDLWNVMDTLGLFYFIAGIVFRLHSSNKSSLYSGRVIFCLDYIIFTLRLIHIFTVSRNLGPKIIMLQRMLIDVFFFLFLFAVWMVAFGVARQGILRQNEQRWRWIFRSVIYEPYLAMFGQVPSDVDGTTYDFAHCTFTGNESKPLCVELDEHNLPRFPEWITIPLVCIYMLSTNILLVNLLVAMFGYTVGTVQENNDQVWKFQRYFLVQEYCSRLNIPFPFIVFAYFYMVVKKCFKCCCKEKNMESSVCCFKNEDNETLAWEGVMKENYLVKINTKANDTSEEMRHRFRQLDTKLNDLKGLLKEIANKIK
Method: as §1, §2
A hTRPA1 stably expressing cell line in which expression of hTRPA1 had been induced in advance by a conventional method was prepared in a 96 well clear bottom plate (black), and a hTRPA1 activating action of the purified oxylipin or the R2 fraction (both were assumed to contain a compound having a molecular weight of 294) obtained in the above item 1 was tested. […] Then, a well in which an assay buffer containing ionomycin (having a final concentration of 10 μM after the addition) instead of the test samples was added was also prepared as a reference for fluorescence intensity. […]

Human TRPM8 (hTRPM8) [6] = target: T3, Human TRPM8 (hTRPM8); experiment: TRPA1 Activation Test 2: intracellular Ca2+ imaging assay 2-2, hTRPM8 stably expressing cell line; conditions: test sample 5 μM; Table 9
Method: as §1, §2
as §4, with “This plate was set to FlexStation 3 (Molecular Devices, LLC), and a fluorescence intensity (excitation wavelength 490 nm, fluorescence wavelength 525 nm) at 31° C. was measured every two seconds, and 30 seconds after the start of the measurement, 100 μL of an assay buffer containing a test sample (allyl isothiocyanate (AITC) of positive control or rhein) which was prepared to have a certain final concentration or DMSO was added.” left out
as §3, §5, §6

C=CCN=C=S [AITC, allyl isothiocyanate, reference compound]
TRPA1 activation rate, With antagonist (Human TRPA1 (hTRPA1) [1]; Table 4): 1.30 ± 0.639% | TRPA1 activation rate, With antagonist (Human TRPA1 (hTRPA1) [1]; Table 6): 1.44 ± 0.163% | TRPA1 activation rate, Without antagonist (Human TRPA1 (hTRPA1) [1]; Table 4): 160 ± 2.58% | TRPA1 activation rate, Without antagonist (Human TRPA1 (hTRPA1) [1]; Table 6): 128 ± 2.99% | TRPA1 activation rate, With antagonist (Human TRPA1 (hTRPA1) [2]; A-967079 1 μM, Table 8): 15.7 ± 7.81 % | TRPA1 activation rate, With antagonist (Human TRPA1 (hTRPA1) [2]; A-967079, Table 11): 0.811 ± 0.0386 % | TRPA1 activation rate (Human TRPA1 (hTRPA1) [2]; Table 7): 101 ± 3.66% | TRPA1 activation rate, Without antagonist (Human TRPA1 (hTRPA1) [2]; Table 8): 104 ± 6.10% | TRPA1 activation rate, Without antagonist (Human TRPA1 (hTRPA1) [2]; Table 11): 115 ± 6.15% | Activation rate, Mock (Mock cell): 6.40 ± 0.143%

COc1cc(CNC(=O)CCCC/C=C/C(C)C)ccc1O [Capsaicin, capsaicin, reference compound]
TRPV1 activation rate (Human TRPV1 (hTRPV1) [3]): 113 ± 1.16% | TRPV1 activation rate (Human TRPV1 (hTRPV1) [4]): 96.3 ± 3.24%

O=C1NC(c2cccc([N+](=O)[O-])c2)=CCN1c1ccccc1O [Icilin, icilin, reference compound]
TRPM8 activation rate (Human TRPM8 (hTRPM8) [5]): 79.8 ± 1.71% | TRPM8 activation rate (Human TRPM8 (hTRPM8) [6]): 104 ± 2.19^ %
